Drawing on the OligoGym collection, this text covers target mRNA inhibition for 63 sequences.

Values joined by “and” are separate entries in the source; they are usually repeats but may differ in a detail not shown here. Equal entries are not always repeated. After the bases stand the sugars from the 5' end (letter, count) and the backbone: PS all phosphorothioate, else s phosphorothioate and o phosphodiester by linkage. Methylation of C is not given here. e = 2'-O-(2-methoxyethyl) (MOE); k = constrained ethyl (cEt); d = 2'-deoxy (DNA)

The target in the series is IRF4. The note with it: ASO.

As to GTTCCTTTTCAGAGTC (sugars k3 d10 k3, PS), the target mRNA inhibition (SK-MEL-28, 0.185 µM) is 16% and 4% and 3%; the target mRNA inhibition (SK-MEL-28, 4 µM) stood at 72%.
For the sequence GTTCGCTGAATTGTCA (sugars k3 d10 k3, PS), under “SK-MEL-28, 4 µM”, the target mRNA inhibition is 37%.
Still for that read-out and setting: to GTTCTAGTCGCGCAAG (sugars k3 d10 k3, PS) belongs 27%; to GTTGACAAATAAGGTA (sugars k3 d10 k3, PS), 60%; to GTTGGAGCAGCCATAG (sugars k3 d10 k3, PS), 31%.
For “GTTGGCTGGTCTTTGT (sugars k2 d9 e3 k2, PS)”, for the setting “MM.1R, 1 µM”, the target mRNA inhibition is 24%.
On to GTTTATTTCCTACTCT (sugars k3 d10 k3, PS), for which the target mRNA inhibition (SK-MEL-28, 4 µM) amounted to 16%.
For the sequence TAAAATGTCACGCCCG (sugars k3 d10 k3, PS), where the note is “MM.1R, 1 µM”, the target mRNA inhibition stood at 0%.
In the case of TAAACTTGGCTGTGGG (sugars k3 d10 k3, PS), under “SK-MEL-28, 4 µM”, the target mRNA inhibition was 27%.
Consider TAAATGAGTCGGTCAC (sugars k3 d10 k3, PS), for which the target mRNA inhibition (SK-MEL-28, 4 µM) was 76% and 65%.
With TAACAGATAACGAGGT (sugars k3 d10 k3, PS), where the note is “MM.1R, 1 µM”, the target mRNA inhibition was 12%.
For TAACAGGCTATCAGGA (sugars k3 d10 k3, PS), where the note is “SK-MEL-28, 4 µM”, the target mRNA inhibition stood at 26%.
Turning to TAACCGGTAGAGTGAG (sugars k3 d10 k3, PS), the target mRNA inhibition (MM.1R, 1 µM) was found to be 27%.
Regarding TAACGGTGTTTCAGAA (sugars k3 d10 k3, PS), the target mRNA inhibition (SK-MEL-28, 4 µM) came to 26%.
With TAACTGGCTTCCAGGA (sugars k3 d10 k3, PS), the target mRNA inhibition (SK-MEL-28, 4 µM) was determined as 30%.
Still for that read-out and setting: to TAAGAGGGCAGTCAAT (sugars k3 d10 k3, PS) belongs 17%; to TAAGCAAGTGGAGGTC (sugars k3 d10 k3, PS), 47%.
Regarding TAAGTGATAGGTATAC (sugars k3 d10 k3, PS), the target mRNA inhibition (SK-MEL-28, 4 µM) is 60%.
Consider TAATAATGCTTGCAAG (sugars k3 d10 k3, PS), for which, under “SK-MEL-28, 4 µM”, the target mRNA inhibition stood at 12%.
Turning to TAATACCTACCTGCCC (sugars k3 d10 k3, PS), the target mRNA inhibition (SK-MEL-28, 4 µM) stood at 4%.
Take TAATAGTAAGTTCTAG (sugars k3 d10 k3, PS): the target mRNA inhibition (SK-MEL-28, 4 µM) stood at 0%.
As to TAATCTGTATAGTTCT (sugars k3 d10 k3, PS), the target mRNA inhibition (MM.1R, 1 µM) is 42%.
For the sequence TAATGTAGGGATACAG (sugars k3 d10 k3, PS), the target mRNA inhibition (SK-MEL-28, 4 µM) is 78%.
Take TAATTCTCCTATGCTG (sugars k3 d10 k3, PS): for the setting “MM.1R, 1 µM”, the target mRNA inhibition amounted to 3%.
TACAAAACGGACTGGA (sugars k3 d10 k3, PS): under “SK-MEL-28, 4 µM”, the target mRNA inhibition came out at 38%.
The same measure, in the same setting: next, TACACTTTGTACGGGT (sugars k3 d10 k3, PS): 28%; TACATCACTGCAGTTC (sugars k3 d10 k3, PS): 68%; TACCATATTGGAAACC (sugars k3 d10 k3, PS): 48%.
On to TACCGCATTGCTAGAT (sugars k3 d10 k3, PS), for which, for the setting “SK-MEL-28, 4 µM”, the target mRNA inhibition is 23%.
With TACGAGAGGGTCTGAT (sugars k3 d10 k3, PS), under “SK-MEL-28, 4 µM”, the target mRNA inhibition came to 0%.
With TACTAGATTGTAGGAC (sugars k3 d10 k3, PS), the target mRNA inhibition (SK-MEL-28, 4 µM) worked out at 27%.
TACTGCTGTACTTTCT (sugars k3 d10 k3, PS): the target mRNA inhibition (SK-MEL-28, 4 µM) was 43%.
Turning to “TACTGCTTGAGGTTTT (sugars kdddddddddkekeke, PS)”, the target mRNA inhibition (MM.1R, 1 µM) stood at 14%.
For the sequence “TACTGCTTGAGGTTTT (sugars kkdddddddddekeke, PS)”, the target mRNA inhibition (MM.1R, 1 µM) worked out at 18%.
With “TACTGCTTGAGGTTTT (sugars kkdddddddddkekek, PS)”, the target mRNA inhibition (MM.1R, 1 µM) is 22%.
As to “TACTGTTACCGATGCT (sugars k2 d9 e3 k2, PS)”, the target mRNA inhibition (MM.1R, 1 µM) was 29% and 8%.
Regarding “TACTGTTACCGATGCT (sugars kddddddddddkekek, PS)”, for the setting “MM.1R, 1 µM”, the target mRNA inhibition was 10% and 2%.
Regarding “TACTGTTACCGATGCT (sugars kkdddddddddkdkdk, PS)”, the target mRNA inhibition (MM.1R, 1 µM) is 7% and 18%.
Take TACTTGGACAGAAGGG (sugars k3 d10 k3, PS): for the setting “SK-MEL-28, 4 µM”, the target mRNA inhibition was 62%.
For the sequence TAGAAAGCCCTCACCT (sugars k3 d10 k3, PS), the target mRNA inhibition (SK-MEL-28, 4 µM) was found to be 5%.
Still for that read-out and setting: to TAGAGAACATTACGAG (sugars k3 d10 k3, PS) belongs 60%; to TAGATAACATGAGAGT (sugars k3 d10 k3, PS), 50%.
For TAGATTCTCCCTGCAC (sugars k3 d10 k3, PS), the target mRNA inhibition (MM.1R, 1 µM) turned out to be 18%.
On to TAGCAGAGGTTCTACC (sugars k3 d10 k3, PS), for which the target mRNA inhibition (SK-MEL-28, 4 µM) was 26%.
TAGCATTATCTACCTC (sugars k3 d10 k3, PS): the target mRNA inhibition (SK-MEL-28, 4 µM) is 66%.
On to TAGCATTCTTACAGCA (sugars k3 d10 k3, PS), for which the target mRNA inhibition by setting is: (MM.1R, 0.0625 µM) -4% and 15%; (MM.1R, 0.074 µM) 0%; (MM.1R, 0.222 µM) 34%; (MM.1R, 0.25 µM) -7% and -4%; (MM.1R, 0.666 µM) 27%; (MM.1R, 1 µM) 7% and 20%. The target mRNA inhibition is 52% (MM.1R, 2 µM); 26% and 40% (MM.1R, 4 µM); 57% (SK-MEL-28, 4 µM).
For TAGGAAGCACTGGCAT (sugars k3 d10 k3, PS), under “SK-MEL-28, 4 µM”, the target mRNA inhibition was found to be 28%.
Same read-out and setting: to TAGGATAATATACCCC (sugars k3 d10 k3, PS) belongs 74%.
As for TAGGTAAGATCTCCAT (sugars k3 d10 k3, PS), for the setting “MM.1R, 1 µM”, the target mRNA inhibition was 35% and 33%.
In the case of TAGTAGACCACAGTGA (sugars k3 d10 k3, PS), the target mRNA inhibition (SK-MEL-28, 4 µM) turned out to be 9%.
“TAGTATGAGAAACGGC (sugars k3 d9 k3 e1, PS)”: the target mRNA inhibition (MM.1R, 1 µM) turned out to be 48%.
“TAGTATGAGAAACGGC (sugars kkkdddddddddkeke, PS)”: the target mRNA inhibition is, setting by setting: (MM.1R, 0.074 µM) 8%; (MM.1R, 0.222 µM) 29%; (MM.1R, 0.666 µM) 50%; (MM.1R, 1 µM) 62%; (MM.1R, 2 µM) 71%.
For TAGTCGCGCAAGTCTA (sugars k3 d10 k3, PS), where the note is “SK-MEL-28, 4 µM”, the target mRNA inhibition is -8%.
Consider TAGTTGTCTGGCTAGC (sugars k3 d10 k3, PS), for which the target mRNA inhibition was 4% and 7% (MM.1R, 0.0625 µM); 16% and 24% (MM.1R, 0.25 µM); 32% and 33% (MM.1R, 1 µM); 68% (MM.1R, 4 µM).
TATAACCGGTAGAGTG (sugars k3 d10 k3, PS): where the note is “SK-MEL-28, 4 µM”, the target mRNA inhibition was determined as 21%.
In the case of TATAACTTCTCCTGTG (sugars k3 d10 k3, PS), where the note is “MM.1R, 1 µM”, the target mRNA inhibition was found to be 7%.
Regarding TATAATTGGCACGAGG (sugars k3 d10 k3, PS), where the note is “SK-MEL-28, 4 µM”, the target mRNA inhibition is 41%.
As to TATCAAGACAAGGAAT (sugars k3 d10 k3, PS), the target mRNA inhibition (SK-MEL-28, 4 µM) was found to be 7%.
In the case of TATCCATTAGAAAAGC (sugars k3 d10 k3, PS), the target mRNA inhibition (SK-MEL-28, 4 µM) worked out at 63%.
As for TATGGCTAAACCTGGC (sugars k3 d10 k3, PS), under “SK-MEL-28, 4 µM”, the target mRNA inhibition is 43%.
Turning to TATTACTCTTAGGCAC (sugars k3 d10 k3, PS), the target mRNA inhibition (SK-MEL-28, 4 µM) stood at 44%.
For TATTTGTTTGCAAGCT (sugars k3 d10 k3, PS), where the note is “MM.1R, 1 µM”, the target mRNA inhibition was 30%.
For the sequence TCAAAAGGTAGTAGAC (sugars k3 d10 k3, PS), for the setting “SK-MEL-28, 4 µM”, the target mRNA inhibition stood at 29%.
